# In patent US20080090805A1, “CB-1 MODULATING COMPOUNDS AND THEIR USE” (ACADIA PHARMACEUTICALS INC., priority 2005, published 2008):
# Where two headings read alike, the source gives them in different places.
# Biological target: CB1 (mutant) (Homo sapiens, UniProt P21554)
# Experiment: R-SAT functional receptor assay, CB1 (mutant, truncated after amino acid 417)
# Assay type: cell-based
# Conditions: R-SAT CB1; for IC50 / pIC50: receptor form (mutant or wild-type) not stated; for Emax / % Inhibition: receptor form not stated, relative to SR141716 (100%); for Emax: read-out: % Inhibition
# [1] = Appendix A, read-out: pIC50 (converted)
# Sequence of CB1 (mutant) (P21554 1-417, change not shown): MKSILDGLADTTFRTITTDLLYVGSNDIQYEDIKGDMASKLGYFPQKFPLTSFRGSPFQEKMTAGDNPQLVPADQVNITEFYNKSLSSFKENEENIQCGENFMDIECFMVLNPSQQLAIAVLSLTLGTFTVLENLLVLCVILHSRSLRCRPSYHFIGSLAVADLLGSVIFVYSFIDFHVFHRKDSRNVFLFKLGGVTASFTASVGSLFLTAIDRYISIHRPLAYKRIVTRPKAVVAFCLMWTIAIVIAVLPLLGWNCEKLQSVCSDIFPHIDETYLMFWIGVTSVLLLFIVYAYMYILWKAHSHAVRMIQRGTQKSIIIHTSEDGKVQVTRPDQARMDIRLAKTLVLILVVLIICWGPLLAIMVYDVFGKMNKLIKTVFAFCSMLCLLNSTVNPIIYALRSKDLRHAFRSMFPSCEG
Structure (SMILES),IC50 [1] [nM],Emax (Appendix A) [%],pIC50 (Appendix A),% Inhibition (Appendix A) [%],"IC50 (pIC50, Appendix A) [nM]"
CCCNC(=O)c1ccc2c(c1)N=C(c1ccccc1F)c1ccccc1S2,39.8,97,,,
O=C(NCCc1ccncc1)c1ccc2c(c1)N=C(c1ccccn1)c1ccccc1S2,251,51,,,
O=C(NCCc1ccc(Cl)cc1)c1ccc2c(c1)N=C(c1ccc(F)cc1)c1ccccc1S2 [drawing 673],6.31,107,,,
CCCC1=Nc2cc(C(=O)NCCCSC3CCCCC3)ccc2Sc2ccccc21,158,95,,,
O=C(NN1CCCCCC1)c1ccc2c(c1)N=C(c1ccc(Cl)cc1)c1ccccc1S2 [drawing 624],63.1,103,,,
CCONC(=O)c1ccc2c(c1)N=C(c1cccc(Cl)c1)c1ccccc1S2,79.4,90,,,
CON(C)C(=O)c1ccc2c(c1)N=C(c1ccccn1)c1ccccc1S2,,8,1.0,,
O=C(NNC(=O)c1ccc2c(c1)N=C(c1ccc(Cl)cc1)c1ccccc1S2)c1ccccc1,398,71,,,
COCCNC(=O)c1ccc2c(c1)N=C(c1ccccc1Cl)c1ccccc1S2,794,62,,,
CN(NC(=O)c1ccc2c(c1)N=C(c1ccccc1F)c1ccccc1S2)C1CCCCC1,316,74,,,
CC(C)CNC(=O)c1ccc2c(c1)N=C(c1ccc(Cl)s1)c1ccccc1S2 [drawing 551],,,8.7,,
Cc1csc(CNC(=O)c2ccc3c(c2)N=C(c2sccc2C)c2ccccc2S3)c1 [drawing 661],6.31,102,,,
CC(C)CNC(=O)c1ccc2c(c1)N=C(c1ccc(Cl)cc1F)c1ccccc1S2 [drawing 613],3.98,110,,,
O=C(NN1CCOCC1)c1ccc2c(c1)N=C(C1CCCCC1)c1ccccc1S2,63.1,56,,,
O=C(NCc1cccc(Cl)c1)c1ccc2c(c1)N=C(c1cccc(Cl)c1)c1cc(F)ccc1S2 [drawing 651],5.01,107,,,
O=C(NCCc1cccnc1)c1ccc2c(c1)N=C(c1ccc(Cl)cc1)c1ccccc1S2 [drawing 638],63.1,116,,,
CCOCCNC(=O)c1ccc2c(c1)N=C(c1ccc(Cl)cc1)c1ccccc1S2 [drawing 604],50.1,92,,,
O=C(NN1CCCCCC1)c1ccc2c(c1)N=C(c1cccc(F)c1)c1ccccc1S2 [drawing 883],,,,96,15.8
O=C(NCCc1ccccn1)c1ccc2c(c1)N=C(c1ccc(Cl)cc1F)c1ccccc1S2 [drawing 562],50.1,96,,,
Cc1csc(CNC(=O)c2ccc3c(c2)N=C(c2cccc(F)c2)c2ccccc2S3)c1 [drawing 557],2.51,96,,,
Cc1cccnc1C1=Nc2cc(C(=O)NCc3ccco3)ccc2Sc2ccccc21,316,83,,,

Structure (SMILES),IC50 [1] [nM],Emax (Appendix A) [%],pIC50 (Appendix A),% Inhibition (Appendix A) [%],"IC50 (pIC50, Appendix A) [nM]"
O=C(NCCCC(F)(F)F)c1ccc2c(c1)N=C(c1ccc(Cl)cc1)c1ccccc1S2 [drawing 601],3.98,105,,,
CCONC(=O)c1ccc2c(c1)N=C(c1ncccc1C)c1ccccc1S2,,21,1.0,,
O=C(NCc1cccs1)c1ccc2c(c1)N=C(c1cccc(F)c1)c1ccccc1S2 [drawing 595],3.16,100,,,
NS(=O)(=O)c1ccc(CNC(=O)C2C=C3N=C(N4CCCCC4)c4ccccc4SC3=CC2)cc1 (centres unmarked),398,78,,,
COc1ccc(C2=Nc3cc(C(=O)NC4CCCCNC4=O)ccc3Sc3ccccc32)cc1 (centres unmarked),251,62,,,
CCCC1=Nc2cc(C(=O)NCC(OCC)OCC)ccc2Sc2ccccc21,39.8,107,,,
COc1cccc(C2=Nc3cc(C(=O)NCc4ccc(C)o4)ccc3Sc3ccccc32)n1 [drawing 554],50.1,84,,,
O=C(NCc1ccco1)c1ccc2c(c1)N=C(c1ccccc1F)c1ccccc1S2 [drawing 859],,100,,,12.6
CCONC(=O)c1ccc2c(c1)N=C(c1sccc1C)c1ccccc1S2,200,77,,,
COCCNC(=O)c1ccc2c(c1)N=C(c1sccc1C)c1ccccc1S2,63.1,88,,,
CCCC1=Nc2cc(C(=O)NN3CCCCC3)ccc2Sc2ccccc21,158,80,,,
CCCC1=Nc2cc(C(=O)NC(C)c3ccccc3)ccc2Sc2ccccc21 (centres unmarked),63.1,97,,,
O=C(NN1CCCCC1)c1ccc2c(c1)N=C(c1ccccc1Cl)c1ccccc1S2,501,45,,,
CCCC1=Nc2cc(C(=O)NCCN3CCN(c4cccc(Cl)c4)CC3)ccc2Sc2ccccc21,,76,,,
O=C(NCc1ccccc1Cl)c1ccc2c(c1)N=C(c1ccc(Cl)cc1)c1ccccc1S2 [drawing 1089],,95,,,31.6
O=C(NCCc1ccccc1)c1ccc2c(c1)N=C(c1cccc(Cl)c1)c1ccccc1S2 [drawing 731],,104,,,7.94
CCCCN(C)C(=O)c1ccc2c(c1)N=C(c1cccc(Cl)c1)c1ccccc1S2,,82,,,79.4
O=C(NCCc1cccnc1)c1ccc2c(c1)N=C(c1ccccc1Cl)c1ccccc1S2,158,76,,,
CCCC1=Nc2cc(C(=O)N3CCN(c4ccc(F)cc4)CC3)ccc2Sc2ccccc21,251,108,,,
O=C(Cc1ccccc1)NNC(=O)c1ccc2c(c1)N=C(c1ccc(Cl)cc1)c1ccccc1S2 [drawing 588],50.1,85,,,
O=C(NCCc1ccc(Cl)cc1)c1ccc2c(c1)N=C(c1cccc(Cl)c1)c1ccccc1S2 [drawing 569],2.51,106,,,

# Further lines, with some results ahead:
IC50 [1] [nM],Emax (Appendix A) [%],pIC50 (Appendix A),% Inhibition (Appendix A) [%],Structure (SMILES),"IC50 (pIC50, Appendix A) [nM]"
,95,,,CCOC(=O)N1CCC(NC(=O)c2ccc3c(c2)N=C(C2CCCCC2)c2ccccc2S3)CC1 [drawing 814],
39.8,98,,,CCCCNC(=O)c1ccc2c(c1)N=C(c1ccc(Cl)cc1)c1cc(F)ccc1S2 [drawing 1111],
15.8,101,,,O=C(NCc1ccc(Cl)cc1Cl)c1ccc2c(c1)N=C(c1ccc(Cl)cc1)c1ccccc1S2 [drawing 901],
15.8,99,,,O=C(NCCc1cccc(Cl)c1)c1ccc2c(c1)N=C(c1ccc(Cl)cc1)c1ccccc1S2 [drawing 911],
200,103,,,Cc1ccc(N2CCN(C(=O)c3ccc4c(c3)N=C(C3CCCCC3)c3ccccc3S4)CC2)c(C)c1 [drawing 896],
31.6,76,,,Cc1ccc(CNC(=O)c2ccc3c(c2)N=C(c2ccc(Cl)cc2F)c2ccccc2S3)o1 [drawing 1039],
15.8,99,,,CCCNC(=O)c1ccc2c(c1)N=C(c1sccc1C)c1ccccc1S2 [drawing 927],
25.1,109,,,CCCCNC(=O)c1ccc2c(c1)N=C(c1ccc(Cl)cc1)c1ccc(F)cc1S2 [drawing 985],
10,103,,,C[C@@H]1CCC[C@H](C)N1NC(=O)c1ccc2c(c1)N=C(c1ccc(Cl)cc1F)c1ccccc1S2 [drawing 811],
12.6,110,,,O=C(NCc1cccc(Cl)c1)c1ccc2c(c1)N=C(c1ccc(Cl)cc1)c1cc(F)ccc1S2 [drawing 837],
12.6,100,,,O=C(NCCc1cccnc1)c1ccc2c(c1)N=C(c1cccc(Cl)c1)c1ccccc1S2 [drawing 857],
10,113,,,O=C(NCCc1ccc(Cl)cc1)c1ccc2c(c1)N=C(N1CCCCC1)c1ccccc1S2 [drawing 775],
158,,,97,O=C(NC1CCCCC1)c1ccc2c(c1)N=C(c1ccc(Cl)cc1)c1ccccc1S2 [drawing 844],
15.8,104,,,O=C(NCCCc1ccccc1)c1ccc2c(c1)N=C(N1CCCCC1)c1ccccc1S2 [drawing 903],
39.8,116,,,O=C(NCCc1ccncc1)c1ccc2c(c1)N=C(c1ccc(Cl)cc1)c1ccccc1S2 [drawing 1135],
12.6,104,,,O=C(NCCc1cccnc1)c1ccc2c(c1)N=C(c1ccc(Cl)c(Cl)c1)c1ccccc1S2 [drawing 825],
39.8,103,,,C[C@@H]1CCC[C@H](C)N1NC(=O)c1ccc2c(c1)N=C(c1ccccc1F)c1ccccc1S2 [drawing 1149],
,,7.2,113,CC(NC(=O)c1ccc2c(c1)N=C(C1CCCCC1)c1ccccc1S2)c1ccccc1 (centres unmarked) [drawing 674],
20,115,,,C[C@@H]1CCC[C@H](C)N1NC(=O)c1ccc2c(c1)N=C(c1ccc(F)cc1)c1ccccc1S2 [drawing 943],
79.4,96,,,O=C(NC1CCCC1)c1ccc2c(c1)N=C(c1cccc(Cl)c1)c1ccccc1S2 [drawing 702],
20,110,,,CC(C)CNC(=O)c1ccc2c(c1)N=C(c1ccc(Cl)cc1)c1ccc(F)cc1S2 [drawing 949],
20,,,108,O=C(NC1CCCCC1)c1ccc2c(c1)N=C(c1ccc(F)cc1)c1ccccc1S2 [drawing 951],
25.1,110,,,O=C(NN1CCCCC1)c1ccc2c(c1)N=C(c1ccc(Cl)c(F)c1)c1ccccc1S2 [drawing 991],
7.94,103,,,O=C(NCc1cccc(Cl)c1)c1ccc2c(c1)N=C(c1ccc(F)cc1)c1ccccc1S2 [drawing 701],
12.6,105,,,CCCCNC(=O)c1ccc2c(c1)N=C(c1cccc(Cl)c1)c1cc(F)ccc1S2 [drawing 829],
12.6,93,,,Cc1cccc(C2=Nc3cc(C(=O)NCCC(F)(F)F)ccc3Sc3ccccc32)n1 [drawing 815],
15.8,106,,,CCCC1=Nc2cc(C(=O)NCCN(CC)c3ccccc3)ccc2Sc2ccccc21 [drawing 885],
6.31,97,,,O=C(NCc1ccco1)c1ccc2c(c1)N=C(c1ccc(Cl)c(Cl)c1)c1ccccc1S2 [drawing 691],
